Experimental data published in US10150758B2, “PRMT5 inhibitors and uses thereof” (Epizyme, Inc., priority 2012, dated 2018).

How the values were obtained:
[1] = molecular target: PRMT5/MEP50 (Homo sapiens (Human), UniProt O14744); experiment: PRMT5 Biochemical Assay (PRMT5/MEP50 enzyme assay on peptide substrate, 3H-SAM Flashplate); settings: PRMT5/MEP50 4 nM, 3H-SAM 75 nM, peptide 40 nM
Text: S-adenosylmethionine (SAM), S-adenosylhomocysteine (SAH), bicine, KCl, Tween20, dimethylsulfoxide (DMSO), bovine skin gelatin (BSG), and Tris(2-carboxyethyl)phosphine hydrochloride solution (TCEP) were purchased from Sigma-Aldrich at the highest level of purity possible. ^3H-SAM was purchase from American Radiolabeled Chemicals with a specific activity of 80 Ci/mmol. 384-well streptavidin Flashplates were purchased from PerkinElmer.
Peptide representative of human histone H4 residues 1-15 was synthesized with a C-terminal linker-affinity tag motif and a C-terminal amide cap by 21st Century Biochemicals. The peptide was high high-perfomance liquid chromatography (HPLC) purified to greater than 95% purity and confirmed by liquid chromatography mass spectrometry (LC-MS). The sequence was Ac-[…][K-Biot]-amide (SEQ ID NO.:3).
Full-length human PRMT5 (NM_006109.3) transcript variant 1 clone was amplified from a fetal brain cDNA library, incorporating flanking 5′ sequence encoding a FLAG tag ([…]) (SEQ ID NO.:4) fused directly to Ala 2 of PRMT5. Full-length human MEP50 (NM_024102) clone was amplified from a human testis cDNA library incorporating a 5′ sequence encoding a 6-histidine tag (MHHHHHH) (SEQ ID NO.:5) fused directly to Arg 2 of MEP50. The amplified genes were sublconed into pENTR/D/TEV (Life Technologies) and subsequently transferred by Gateway™ attL×attR recombination to pDEST8 baculvirus expression vector (Life Technologies).
Recombinant baculovirus and Baculovirus-Infected Insect Cells (BIIC) were generated according to Bac-to-Bac kit instructions (Life Technologies) and Wasilko, 2006, respectively. Protein over-expression was accomplished by infecting exponentially growing Spodoptera frugiperda (SF9) cell culture at 1.2×10^6 cell/ml with a 5000 fold dilution of BIIC stock. Infections were carried out at 27° C. for 72 hours, harvested by centrifugation, and stored at −80° C. for purification.
Flag-PRMT5/6His-MeP50 was eluted with 300 mM Imidazole in the same buffer. The purity of recovered protein was 87%. Reference: Wasilko, D. J. and S. E. Lee: “TIPS: titerless infected-cells preservation and scale-up” Bioprocess J., 5 (2006), pp. 29-32.
General Procedure for PRMT5/MEP50 Enzyme Assays on Peptide Substrates.
The assays were all performed in a buffer consisting of 20 mM Bicine (pH=7.6), 1 mM TCEP, 0.005% BSG, and 0.002% Tween20, prepared on the day of use. Compounds in 100% DMSO (1 ul) were spotted into a polypropylene 384-well V-bottom plates (Greiner) using a Platemate Plus outfitted with a 384-channel head (Thermo Scientific). DMSO (1 ul) was added to Columns 11, 12, 23, 24, rows A-H for the maximum signal control and 1 ul of SAH, a known product and inhibitor of PRMT5/MEP50, was added to columns 11, 12, 23, 24, rows I-P for the minimum signal control. A cocktail (40 ul) containing the PRMT5/MEP50 enzyme and the peptide was added by Multidrop Combi (Thermo-Fisher). The compounds were allowed to incubate with PRMT5/MEP50 for 30 min at 25 degrees Celsius, then a cocktail (10 ul) containing ^3H-SAM was added to initiate the reaction (final volume=51 ul). The final concentrations of the components were as follows: PRMT5/MEP50 was 4 nM, ^3H-SAM was 75 nM, peptide was 40 nM, SAH in the minimum signal control wells was 100 uM, and the DMSO concentration was 1%. The assays were stopped by the addition of non-radioactive SAM (10 ul) to a final concentration of 600 uM, which dilutes the ^3H-SAM to a level where its incorporation into the peptide substrate is no longer detectable. 50 ul of the reaction in the 384-well polypropylene plate was then transferred to a 384-well Flashplate and the biotinylated peptides were allowed to bind to the streptavidin surface for at least 1 hour before being washed three times with 0.1% Tween20 in a Biotek ELx405 plate washer. […]

[2] = tested on: Z-138 cells; experiment: Z-138 Proliferation Assay (Cell Titer Glo); type: cell-based; settings: Homo sapiens, 120 h, 5 days, top concentration 20 μM
Text: [formula] Z-138 Proliferation Assay
Z-138 suspension cells were purchased from ATCC (American Type Culture Collection, Manassas, Va.). RPMI/Glutamax medium, penicillin-streptomycin, heat inactivated fetal bovine serum were purchased from Life Technologies, Grand Island, N.Y., USA. V-bottom polypropylene 384-well plates were purchased from Greiner Bio-One, Monroe, N.C., USA. Cell culture 384-well white opaque plates were purchased from Perkin Elmer, Waltham, Mass., USA. Cell-Titer Glo® was purchased from Promega Corporation, Madison, Wis., USA. SpectraMax M5 plate reader was purchased from Molecular Devices LLC, Sunnyvale, Calif., USA.
Z-138 suspension cells were maintained in growth medium (RPMI 1640 supplemented with 10% v/v heat inactivated fetal bovine serum and cultured at 37° C. under 5% CO2. Under assay conditions, cells were incubated in assay medium (RPMI 1640 supplemented with 10% v/v heat inactivated fetal bovine serum and 100 units/mL penicillin-streptomycin) at 37° C. under 5% CO2.
For the assessment of the effect of compounds on the proliferation of the Z-138 cell line, exponentially growing cells were plated in 384-well white opaque plates at a density of 10,000 cells/ml in a final volume of 50 μl of assay medium. A compound source plate was prepared by performing triplicate nine-point 3-fold serial dilutions in DMSO, beginning at 10 mM (final top concentration of compound in the assay was 20 μM and the DMSO was 0.2%). A 100 nL aliquot from the compound stock plate was added to its respective well in the cell plate. […] After addition of compounds, assay plates were incubated for 5 days at 37° C., 5% CO2, relative humidity >90%. Cell viability was measured by quantitation of ATP present in the cell cultures, adding 35 μl of Cell Titer Glo® reagent to the cell plates. Luminescence was read in the SpectraMax M5 microplate reader. The concentration of compound inhibiting cell viability by 50% was determined using a 4-parametric fit of the normalized dose response curves.

Sequence of PRMT5/MEP50 (O14744 other isoform, or with tags, fused parts or gaps): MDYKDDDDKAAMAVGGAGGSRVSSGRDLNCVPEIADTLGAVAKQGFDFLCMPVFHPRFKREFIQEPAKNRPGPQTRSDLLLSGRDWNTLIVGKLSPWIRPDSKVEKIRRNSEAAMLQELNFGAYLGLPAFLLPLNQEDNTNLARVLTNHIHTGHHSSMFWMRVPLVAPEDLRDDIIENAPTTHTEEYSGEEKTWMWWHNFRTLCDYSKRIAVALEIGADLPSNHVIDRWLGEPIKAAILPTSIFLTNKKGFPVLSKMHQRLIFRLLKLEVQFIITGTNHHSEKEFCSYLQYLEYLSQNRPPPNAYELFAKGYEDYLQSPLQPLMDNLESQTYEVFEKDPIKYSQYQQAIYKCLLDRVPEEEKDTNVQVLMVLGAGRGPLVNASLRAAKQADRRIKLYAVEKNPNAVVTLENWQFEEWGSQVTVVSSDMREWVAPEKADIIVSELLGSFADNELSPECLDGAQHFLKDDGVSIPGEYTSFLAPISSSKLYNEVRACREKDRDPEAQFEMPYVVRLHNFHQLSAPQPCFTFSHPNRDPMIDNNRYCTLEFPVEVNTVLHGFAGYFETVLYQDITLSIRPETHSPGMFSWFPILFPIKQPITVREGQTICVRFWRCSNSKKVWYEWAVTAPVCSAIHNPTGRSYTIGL
Sequence of PRMT5/MEP50 (Q9BQA1 other isoform, or with tags, fused parts or gaps partner): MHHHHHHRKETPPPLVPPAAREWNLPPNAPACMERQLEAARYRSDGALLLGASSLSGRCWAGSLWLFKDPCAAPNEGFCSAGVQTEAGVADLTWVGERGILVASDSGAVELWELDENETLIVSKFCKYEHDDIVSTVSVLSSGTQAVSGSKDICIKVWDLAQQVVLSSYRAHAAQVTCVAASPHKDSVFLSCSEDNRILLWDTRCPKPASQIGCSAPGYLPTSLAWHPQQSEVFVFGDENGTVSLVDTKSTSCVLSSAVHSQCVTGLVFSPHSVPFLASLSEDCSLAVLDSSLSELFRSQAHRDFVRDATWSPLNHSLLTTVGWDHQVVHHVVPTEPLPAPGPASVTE

IC50 [1] [nM] | SMILES | EC50 [2] [nM]
< 100 | O=C1CN(c2cccc(N3CCOCC3)c2)CCN1CC(O)CN1CCc2ccccc2C1 (stereo not shown) [Compound 12, 1-(3-(3,4-dihydroisoquinolin-2(1H)-yl)-2-hydroxypropyl)-4-(3-morpholinophenyl)piperazin-2-one] | 1000 to 10000
101 to 1000 | O=C1COc2ccccc2N1CC(O)CN1CCc2ccccc2C1 (stereo not shown) [Compound 31, 4-(3-(3,4-dihydroisoquinolin-2(1H)-yl)-2-hydroxypropyl)-2H-benzo[b][1,4]oxazin-3(4H)-one] | > 20000
101 to 1000 | O=C1Cc2ccccc2N1CC(O)CN1CCc2ccccc2C1 (stereo not shown) [Compound 1, 1-(3-(3,4-dihydroisoquinolin-2(1H)-yl)-2-hydroxypropyl)indolin-2-one] | > 20000
< 100 | O=C1CN(c2cncc(N3CCOCC3)c2)CCN1CC(O)CN1CCc2ccccc2C1 (stereo not shown) [Compound 8, 1-(3-(3,4-dihydroisoquinolin-2(1H)-yl)-2-hydroxypropyl)-4-(5-morpholinopyridin-3-yl)piperazin-2-one] | 1000 to 10000
< 100 | O=C1CN(c2ccc(Cl)cc2)CCN1CC(O)CN1CCc2ccccc2C1 (stereo not shown) [Compound 7, 4-(4-chlorophenyl)-1-(3-(3,4-dihydroisoquinolin-2(1H)-yl)-2-hydroxypropyl)piperazin-2-one] | 10000 to 50000
< 100 | O=C1CN(c2cccc(F)c2)CCN1CC(O)CN1CCc2ccccc2C1 (stereo not shown) [Compound 6] | > 20000
< 100 | O=C1CN(c2cccc3cccnc23)CCN1CC(O)CN1CCc2ccccc2C1 (stereo not shown) [Compound 4, 1-(3-(3,4-dihydroisoquinolin-2(1H)-yl)-2-hydroxypropyl)-4-(quinolin-8-yl)piperazin-2-one] | 1000 to 10000
101 to 1000 | CN(C)c1ccccc1N1CCN(C[C@H](O)CN2CCc3ccccc3C2)C(=O)C1 [Compound 29] | 10000 to 50000
101 to 1000 | O=C1CN(c2ccccc2Cl)CCN1CC(O)CN1CCc2ccccc2C1 (stereo not shown) [Compound 9] | 10000 to 50000
101 to 1000 | O=c1cc(Nc2ccccc2)ccn1C[C@H](O)CN1CCc2ccccc2C1 [Compound 19, (R)-1-(3-(3,4-dihydroisoquinolin-2(1H)-yl)-2-hydroxypropyl)-4-(phenylamino)pyridin-2(1H)-one] | > 20000
101 to 1000 | Cc1ccc(N2CCN(CC(O)CN3CCc4ccccc4C3)C(=O)C2)cc1 (stereo not shown) [Compound 15, 1-(3-(3,4-dihydroisoquinolin-2(1H)-yl)-2-hydroxypropyl)-4-(p-tolyl)piperazin-2-one] | > 20000
